In article PMC12024191, “Pharmacological and Molecular Docking Investigation of Leaves of Eriobotrya japonica: Antioxidant, Enzyme Inhibition, and Anti-Inflammatory Effects” (Antioxidants, 2025):
Where two headings read alike, the source gives them in different places.

Columns and labels:
[1] = Radical scavenging activity of DPPH; conditions: for EC50: isolated components (Table 4), read-out: SC50 DPPH
Method: According to the method reported in [48], a DPPH radical solution (400 μM) was prepared in EtOH. The tested samples were diluted to the desired concentrations with EtOH. In a 96-well plate, diluted tested sample solution (100 μL) was mixed with 100 μL of the DPPH radical solution (200 μM). The mixture was allowed to react at room temperature for 30 min in the dark. After the reaction, the absorbance at 520 nm was measured using an ELISA reader (TECAN Sunrise, Männedorf, Schweiz). The scavenging activity was calculated using the following equation. Scavenging rate (%) = (Acontrol − Asample)/Acontrol × 100% where Acontrol was the absorbance of the control and Asample was that of the tested sample.

[2] = Radical scavenging activity of ABTS; conditions: for EC50: isolated components (Table 4), read-out: SC50 ABTS
Method: According to the method reported in [49], ABTS solution (28 mM) was mixed with potassium permanganate solution (9.6 mM) in an equal ratio (v/v = 1:1) and allowed to react at room temperature in the dark for 16 h to generate the ABTS radical solution. The ABTS radical solution was then diluted with EtOH until the absorbance reached 0.70 ± 0.02 at 740 nm. The tested samples were subsequently diluted to the desired concentrations with EtOH. In a 96-well plate, the ABTS radical solution (190 μL) was mixed with the sample solution (10 μL) and was allowed to react at room temperature for 6 min in the dark. The absorbance was then measured at 740 nm using an ELISA reader. The scavenging activity was calculated using the following equation. Scavenging rate (%) = (Acontrol − Asample)/Acontrol × 100% where Acontrol was the absorbance of the control and Asample was that of the tested sample.

[3] = Ferric reducing antioxidant power (FRAP)
Method: According to the previously published methods, acetate buffer (pH 3.6), FeCl3 solution (20 mM), and 10 m TPTZ solution (prepared in 40 mM HCl) were mixed in a ratio of 10:1:1 to generate the FRAP working solution. Then, the working solution was warmed to 37 °C before being used. The diluted sample, blank, or standard solution (100 µL) was mixed with the warm-up working solution (900 µL) and incubated for 40 min in a dry bath at 37 °C. The absorbance at 593 nm was measured using an ELISA reader. The standard curve was linear from 0 to 100 mM Trolox, and the data were expressed as mM TE/g dry weight.

[4] = target: T1, acetylcholinesterase (AChE) (Electrophorus electricus, UniProt O42275); assay: biochemical
T1 construct: purchased Sigma-Aldrich
T1 sequence (O42275 24-633): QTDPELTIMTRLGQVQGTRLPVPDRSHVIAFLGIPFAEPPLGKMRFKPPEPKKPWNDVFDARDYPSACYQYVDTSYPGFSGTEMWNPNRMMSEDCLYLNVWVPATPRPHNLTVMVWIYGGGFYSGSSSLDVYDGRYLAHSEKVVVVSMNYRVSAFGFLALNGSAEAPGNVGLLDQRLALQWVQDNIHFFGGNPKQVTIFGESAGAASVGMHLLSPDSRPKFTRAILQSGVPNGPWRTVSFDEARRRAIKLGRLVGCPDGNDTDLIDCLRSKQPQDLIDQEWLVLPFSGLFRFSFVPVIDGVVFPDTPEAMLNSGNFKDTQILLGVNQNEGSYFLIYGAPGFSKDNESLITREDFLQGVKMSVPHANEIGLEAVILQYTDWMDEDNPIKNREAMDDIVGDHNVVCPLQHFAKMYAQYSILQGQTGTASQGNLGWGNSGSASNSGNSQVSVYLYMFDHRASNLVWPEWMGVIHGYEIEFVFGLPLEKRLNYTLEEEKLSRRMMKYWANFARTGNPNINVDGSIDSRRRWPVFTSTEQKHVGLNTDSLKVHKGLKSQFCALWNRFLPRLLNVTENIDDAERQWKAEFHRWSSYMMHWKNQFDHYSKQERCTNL
Method: The AChE inhibition was carried out based on the previous method. The sodium phosphate buffer (pH 8.0, 0.1 M, 140 μL), DTNB (10 μL), tested sample (20 μL), and AChE solution (15 μL) were mixed in a 96-well plate. After incubating at room temperature for 10 min, the absorbance was measured at 405 nm. The inhibitory effect was calculated by the following equation. Acetylcholinesterase inhibition (%) = (Acontrol − Asample)/Acontrol × 100% where Asample and Acontrol represent the absorbance values of the tested sample and control, respectively.

[5] = Radical scavenging activity of superoxide; conditions: for EC50: isolated components (Table 4), read-out: SC50 Superoxide
Method: According to a previously reported procedure, the superoxide radical solution was prepared in Tris-HCl buffer (16 mM, pH 8.0) containing 300 µM NBT (50 µL), 120 µM PMS (50 µL), and tested sample solution (50 µL). […] The absorbance at 560 nm was measured using an ELISA reader, and the scavenging activity was calculated by the following equation. Scavenging rate (%) = (Acontrol − Asample)/Acontrol × 100% where Acontrol was the absorbance of the control and Asample was that of the tested sample.

α-glucosidase = target: T2, α-glucosidase (Saccharomyces cerevisiae, UniProt P53341); assay: Enzyme inhibition assay of α-glucosidase; assay type: biochemical, S. cerevisiae
T2 construct: purchased Sigma-Aldrich
T2 sequence (P53341 whole entry): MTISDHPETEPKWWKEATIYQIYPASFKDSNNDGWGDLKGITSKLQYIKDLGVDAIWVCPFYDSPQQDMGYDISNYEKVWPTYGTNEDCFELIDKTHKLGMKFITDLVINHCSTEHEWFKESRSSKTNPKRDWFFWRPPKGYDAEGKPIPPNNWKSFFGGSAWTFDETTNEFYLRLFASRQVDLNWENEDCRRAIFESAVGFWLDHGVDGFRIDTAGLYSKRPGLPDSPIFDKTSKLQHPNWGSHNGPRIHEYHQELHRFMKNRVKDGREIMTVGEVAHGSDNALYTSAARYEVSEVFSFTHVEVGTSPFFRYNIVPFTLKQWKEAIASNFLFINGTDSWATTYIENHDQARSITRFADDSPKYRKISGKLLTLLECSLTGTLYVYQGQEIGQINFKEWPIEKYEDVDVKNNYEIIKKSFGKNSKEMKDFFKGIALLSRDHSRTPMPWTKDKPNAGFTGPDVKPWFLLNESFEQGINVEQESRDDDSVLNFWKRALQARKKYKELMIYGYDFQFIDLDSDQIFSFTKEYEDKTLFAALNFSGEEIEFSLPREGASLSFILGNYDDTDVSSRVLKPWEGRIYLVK
Method: The inhibitory activity of α-glucosidase was determined based on the previously reported method. The α-glucosidase solution was prepared with sodium phosphate buffer (pH 6.8, 0.1 M) and diluted to 1 U/mL. Subsequently, the tested sample solution (100 µL), diluted α-glucosidase solution (20 µL), and 0.53 mM p-NPG (380 µL) were mixed and incubated at 37 °C for 40 min. […] The activity was calculated by the following equation. α-Glucosidase inhibition (%) = (Acontrol − Asample)/Acontrol × 100% where Asample and Acontrol represent the absorbance values of the tested sample and control, respectively.

[6] = test system: NO production of LPS-induced RAW264.7 cells; assay: LPS-induced NO inhibition assay (Griess); assay type: cell-based, Murine; conditions: Mus musculus, read-out: NO inhibition IC50
Method: LPS-induced NO production of RAW264.7 cells was determined by Griess assay. The 100 μL quantity of cells was seeded in 96-well plates at an amount of 5 × 10^4 cells/well and incubated for 24 h. The cells were then treated with 100 ng/mL LPS with vehicle or different concentrations of the tested sample for 24 h. […] The absorbance was measured at 540 nm to calculate the NO inhibition. Sodium nitrite was used to generate a standard curve.

[7] = test system: iNOS expression in LPS-stimulated RAW264.7 cells; assay: Western blot analysis of iNOS expression; assay type: cell-based, Murine; conditions: compared to the LPS group (100 ng/mL LPS)
[8] = solvent extracts, concentration causing 50% free radical scavenging
[9] = isolated components (Table 4), mM Trolox equivalents per g
[10] = 100 ng/mL LPS, 24 h, RAW264.7 cells

## Cc1cc(C(C)(C)C)c(O)c(C(C)(C)C)c1 [BHT, reference compound]
[1]
  EC50: 881 ± 70.4 µM
[1]; [8]
  SC50 DPPH: 230.05 ± 25.40 ^AB μg/mL
[2]
  EC50: 25.87 ± 0.01 µM
[2]; [8]
  SC50 ABTS: 29.95± 1.04 ^A μg/mL
[3]; [9]
  TE FRAP: 3082.65 ± 213.69 ^B mM/g
[3]; solvent extracts (Table 2), mM Trolox equivalents per gram
  TE FRAP: 3370.27 ± 256.53 ^D mM/g

## O=C(/C=C/c1ccc(O)c(O)c1)O[C@@H]1C[C@](O)(C(=O)O)C[C@@H](O)[C@H]1O [Chlorogenic acid, chlorogenic acid, reference compound]
[4]; isolated components (Table 5)
  IC50: 320 ± 4.13 µM
[4]; solvent extracts (Table 3)
  IC50: 386 µM

## C[C@H]1[C@H](C)CC[C@]2(C(=O)O)CC[C@]3(C)C(=CC[C@@H]4[C@@]5(C)C[C@@H](O)[C@H](O)C(C)(C)[C@@H]5CC[C@]43C)[C@H]12 [Corosolic acid (3), corosolic acid]
[5]
  EC50: > 400 µM
[1]
  EC50: > 400 µM
[2]
  EC50: > 400 µM
[3]; [9]
  TE FRAP: <1 mM/g
α-glucosidase; isolated components (Table 5), read-out: IC50 α-Glucosidase
  IC50: 13.8 ± 2.11 µM
[4]; isolated components (Table 5)
  IC50: 283 ± 17 µM

## O=c1cc(-c2ccc(O)c(O)c2)oc2cc(O[C@@H]3O[C@H](CO)[C@@H](O)[C@H](O)[C@H]3O)cc(O)c12 [Cynaroside, cynaroside, reference compound]
[5]
  EC50: 38.3 ± 0.69 µM
[5]; [8]
  SC50 Superoxide: 13.41 ± 2.56 ^A μg/mL

## Oc1cc(O)c2c(c1)O[C@H](c1ccc(O)c(O)c1)[C@H](O)C2 [Epicatechin (5), epicatechin]
[5]
  EC50: 210 ± 9.46 µM
[1]
  EC50: 56.9 ± 0.91 µM
[2]
  EC50: 7.83 ± 0.34 µM
[3]; [9]
  TE FRAP: 1694.43 ± 21.45 ^A mM/g
α-glucosidase
  IC50: > 800 µM
[6]; [10]
  IC50: > 50 µM
[4]; isolated components (Table 5)
  IC50: 405 ± 26.3 µM

## CC1(C)CC[C@]2(C(=O)O)CC[C@]3(C)C(=CC[C@@H]4[C@@]5(C)CC[C@H](O)C(C)(C)[C@@H]5CC[C@]43C)[C@@H]2C1 [Oleanolic acid (1), oleanolic acid]
[5]
  EC50: > 400 µM
[1]
  EC50: > 400 µM
[2]
  EC50: > 400 µM
[3]; [9]
  TE FRAP: <1 mM/g
[6]; RAW264.7, 24 h
  IC50: > 50 µM

## O=c1c(O)c(-c2ccc(O)c(O)c2)oc2cc(O)cc(O)c12 [Quercetin, quercetin, reference compound]
[6]; [10]
  IC50: 17.1 ± 1.63 µM

## C[C@@H]1O[C@@H](OC[C@H]2O[C@@H](Oc3c(-c4ccc(O)c(O)c4)oc4cc(O)cc(O)c4c3=O)[C@H](O)[C@@H](O)[C@@H]2O)[C@H](O)[C@H](O)[C@H]1O [Rutin (6), rutin]
[5]
  EC50: 6.69 ± 0.25 µM
[1]
  EC50: 66.3 ± 1.68 µM
[2]
  EC50: 20 ± 0.3 µM
[3]; [9]
  TE FRAP: 1609.10 ± 25.67 ^A mM/g
[6]; RAW264.7, 24 h
  IC50: 29.5 ± 1.19 µM
[4]; isolated components (Table 5)
  IC50: 452 ± 12.9 µM

## CC1CCC2(C(=O)O)CCC3(C)C(=CCC4C5(C)CC(O)C(O)C(C)(C)C5CCC43C)C2C1(C)O (stereo not shown) [Tormentic acid (4), tormentic acid]
[5]
  EC50: > 400 µM
[1]
  EC50: > 400 µM
[2]
  EC50: > 400 µM
[3]; [9]
  TE FRAP: <1 mM/g
α-glucosidase
  IC50: 320 ± 26.1 µM
[6]; [10]
  IC50: > 50 µM
[4]; isolated components (Table 5)
  IC50: 281 ± 8.55 µM

## C[C@H]1[C@H](C)CC[C@]2(C(=O)O)CC[C@]3(C)C(=CC[C@@H]4[C@@]5(C)CC[C@H](O)C(C)(C)[C@@H]5CC[C@]43C)[C@H]12 [Ursolic acid (2), ursolic acid]
[7]; 10 μM
  Inhibition of iNOS expression: 26.7%
[7]; 20 μM
  Inhibition of iNOS expression: 68.1%
[6]; [10]
  IC50: 20.2 ± 1.46 µM
[4]; isolated components (Table 5)
  IC50: 311 ± 7.31 µM
